In the test the test system is HBV rcDNA in HepDE19 cells. Nature of the test: HepDE19 assay with bDNA quantitation of HBV rcDNA. It counts as cell-based, hepatitis B virus (HBV).
[1] abbreviates: Hepatitis B virus, HepDE19, 168 h, read-out: DE-19 bDNA EC50 (μM), HepDE19 cells, inhibition of rcDNA formation, 7 day incubation, top concentration 25 μM.
[2] abbreviates: HepDE19 cells, inhibition of rcDNA formation, 7 day incubation, top concentration 25 μM, read-out: DE-19 bDNA EC50.
[3] abbreviates: Hepatitis B virus, HepDE19, 168 h, HepDE19 cells, inhibition of rcDNA formation, 7 day incubation, top concentration 25 μM, read-out: DE-19 bDNA EC50.

Where two headings read alike, the source gives them in different places.

With `O=C1CCC[C@@H](COC(=O)N[C@H]2CCc3c(C(=O)Nc4ccc(F)c(Cl)c4)ccc(F)c32)N1` [Compound 212, O—((S)-6-Oxopiperidin-2-yl)methyl, N—((S)-4-((3-chloro-4-fluorophenyl)carbamoyl)-7-fluoro-2,3-dihydro-1H-inden-1-yl) carbamate], the EC50 under setting [1] stood at 0.27 µM.

Regarding `O=C1CC(COC(=O)N[C@H]2CCc3c(C(=O)Nc4ccc(F)c(Cl)c4)ccc(F)c32)N1` (stereo partly drawn) [Compound 213, O-(4-Oxoazetidin-2-yl)methyl, N—((S)-4-((3-chloro-4-fluorophenyl)carbamoyl)-7-fluoro-2,3-dihydro-1H-inden-1-yl) carbamate], the EC50 under setting [1] was determined as 0.33 µM.

`COC(=O)NC1(C)CCc2c(C(=O)Nc3ccc(F)c(Cl)c3)ccc(F)c21` (centres unmarked) [Compound 214, O-methyl, N-(4-((3-chloro-4-fluorophenyl)carbamoyl)-7-fluoro-1-methyl-2,3-dihydro-1H-inden-1-yl) carbamate]: the EC50 under setting [2] is 2.6 µM.

Turning to `O=C(Nc1ccc(F)c(Cl)c1)c1cccc2c1CC[C@@H]2NS(=O)(=O)C1CC1` [Compound 216, (S)—N-(3-chloro-4-fluorophenyl)-1-(cyclopropanesulfonamido)-2,3-dihydro-1H-indene-4-carboxamide], the EC50 under setting [3] was found to be 0.04 µM.

Regarding `COC(=O)NC1(C)CCc2c(C(=O)Nc3ccc(F)c(Cl)c3)ccc(F)c21` (centres unmarked) [Compound 217, O-Methyl, N-(4-((3-chloro-4-fluorophenyl)carbamoyl)-7-fluoro-1-methyl-2,3-dihydro-1H-inden-1-yl) carbamate], the EC50 under setting [2] stood at 12 µM.

With `COC(=O)NC1(C)CCc2c(C(=O)Nc3ccc(F)c(Cl)c3)ccc(F)c21` (centres unmarked) [Compound 218, O-Methyl, N-(4-((3-chloro-4-fluorophenyl)carbamoyl)-7-fluoro-1-methyl-2,3-dihydro-1H-inden-1-yl) carbamate], the EC50 under setting [2] was 1.9 µM.

In the case of `CC1(NC(=O)OCc2ccccn2)CCc2c(C(=O)Nc3ccc(F)c(Cl)c3)ccc(F)c21` (centres unmarked) [Compound 219, O-pyridin-2-ylmethyl, N-(4-((3-chloro-4-fluorophenyl)carbamoyl)-7-fluoro-1-methyl-2,3-dihydro-1H-inden-1-yl) carbamate], the EC50 under setting [2] was 1.5 µM.

Regarding `O=C(NC1c2c(F)ccc(C(=O)Nc3ccc(F)c(Cl)c3)c2CC1(F)F)OCc1ccccn1` (centres unmarked) [Compound 220, O-pyridin-2-ylmethyl, N-(4-((3-chloro-4-fluorophenyl)carbamoyl)-2,2,7-trifluoro-2,3-dihydro-1H-inden-1-yl) carbamate], the EC50 under setting [2] turned out to be 10 µM.

Consider `O=C(Nc1ccc(F)c(Cl)c1)c1ccc(F)c2c1CC[C@@H]2NS(=O)(=O)CC1CC1` [Compound 221, (S)—N-(3-Chloro-4-fluorophenyl)-1-((cyclopropylmethyl)sulfonamido)-7-fluoro-2,3-dihydro-1H-indene-4-carboxamide], for which the EC50 under setting [3] came out at 0.21 µM.

With `O=C(Nc1ccc(F)c(Cl)c1)c1ccc(F)c2c1CC[C@@H]2NS(=O)(=O)Cc1ccccc1` [Compound 222, (S)—N-(3-Chloro-4-fluorophenyl)-7-fluoro-1-((phenylmethyl)sulfonamido)-2,3-dihydro-1H-indene-4-carboxamide], the EC50 under setting [3] worked out at 0.3 µM.

`CC1(NC(=O)OCc2ccccn2)CCc2c(C(=O)Nc3ccc(F)c(Cl)c3)ccc(F)c21` (centres unmarked) [Compound 224, O-Pyridin-2-ylmethyl, N-(4-((3-chloro-4-fluorophenyl)carbamoyl)-7-fluoro-1-methyl-2,3-dihydro-1H-inden-1-yl) carbamate]: the EC50 under setting [2] is 11 µM.

Consider `CC1(NC(=O)OCc2ccccn2)CCc2c(C(=O)Nc3ccc(F)c(Cl)c3)ccc(F)c21` (centres unmarked) [Compound 225, O-Pyridin-2-ylmethyl, N-(4-((3-chloro-4-fluorophenyl)carbamoyl)-7-fluoro-1-methyl-2,3-dihydro-1H-inden-1-yl) carbamate], for which, under setting [2], the EC50 is 2 µM.

`O=C(N[C@H]1CCc2c(C(=O)Nc3ccc(F)c(Cl)c3)ccc(F)c21)OC1CC1` [Compound 226, O-cyclopropyl, N—(S)-(4-((3-chloro-4-fluorophenyl)carbamoyl)-7-fluoro-2,3-dihydro-1H-inden-1-yl)carbamate]: the EC50 under setting [3] was determined as 0.24 µM.

With `CNS(=O)(=O)N[C@H]1CCc2c(C(=O)Nc3ccc(F)c(Cl)c3)ccc(F)c21` [Compound 227, (S)—N-(3-Chloro-4-fluorophenyl)-7-fluoro-1-((N-methylsulfamoyl)amino)-2,3-dihydro-1H-indene-4-carboxamide], under setting [3], the EC50 was 0.43 µM.

For the molecule `O=C(Nc1ccc(F)c(Cl)c1)c1ccc(F)c2c1CC[C@@H]2NS(=O)(=O)N1CCOCC1` [Compound 228, (S)—N-(3-Chloro-4-fluorophenyl)-7-fluoro-1-(morpholine-4-sulfonamido)-2,3-dihydro-1H-indene-4-carboxamide], the EC50 under setting [3] was found to be 0.2 µM.

With `O=C(N[C@H]1CCc2c(C(=O)Nc3ccc(F)c(Cl)c3)cccc21)OC1CC1` [Compound 229, O-cyclopropyl, N-(S)-(4-((3-chloro-4-fluorophenyl)carbamoyl)-2,3-dihydro-1H-inden-1-yl) carbamate], under setting [2], the EC50 was 0.36 µM.

With `CNS(=O)(=O)N[C@H]1CCc2c(C(=O)Nc3ccc(F)c(Cl)c3)cccc21` [Compound 230, (S)-N-(3-chloro-4-fluorophenyl)-1-((N-methylsulfamoyl)amino)-2,3-dihydro-1H-indene-4-carboxamide], the EC50 under setting [3] stood at 0.36 µM.

As for `O=C(N[C@H]1CCc2c(C(=O)Nc3ccc(F)c(Cl)c3)ccc(F)c21)OCc1nnco1` [Compound 231, O-(1,3,4-oxadiazol-2-yl)methyl, N-(S)-(4-((3-chloro-4-fluorophenyl)carbamoyl)-7-fluoro-2,3-dihydro-1H-inden-1-yl) carbamate], the EC50 under setting [2] was 0.13 µM.

In the case of `CCS(=O)(=O)N[C@H]1CCc2c(C(=O)Nc3ccc(F)c(Cl)c3)ccc(F)c21` [Compound 232, (S)—N-(3-Chloro-4-fluorophenyl)-1-(ethylsulfonamido)-7-fluoro-2,3-dihydro-1H-indene-4-carboxamide], the EC50 under setting [3] was determined as 0.24 µM.

Consider `CCCS(=O)(=O)N[C@H]1CCc2c(C(=O)Nc3ccc(F)c(Cl)c3)ccc(F)c21` [Compound 233, (S)—N-(3-Chloro-4-fluorophenyl)-7-fluoro-1-(propylsulfonamido)-2,3-dihydro-1H-indene-4-carboxamide], for which the EC50 under setting [3] was determined as 0.33 µM.

Regarding `CC(C)CS(=O)(=O)N[C@H]1CCc2c(C(=O)Nc3ccc(F)c(Cl)c3)ccc(F)c21` [Compound 234, (S)—N-(3-Chloro-4-fluorophenyl)-7-fluoro-1-((2-methylpropyl)sulfonamido)-2,3-dihydro-1H-indene-4-carboxamide], the EC50 under setting [3] was determined as 0.34 µM.

As to `CNC(=O)NC1c2c(F)ccc(C(=O)Nc3ccc(F)c(Cl)c3)c2CC1OC` (centres unmarked) [Compound 235, N-(3-chloro-4-fluorophenyl)-7-fluoro-2-methoxy-1-(3-methylureido)-2,3-dihydro-1H-indene-4-carboxamide], the EC50 under setting [3] is 4.5 µM.

On to `COC(=O)NC1c2c(F)ccc(C(=O)Nc3ccc(F)c(Cl)c3)c2CC1OC` (centres unmarked) [Compound 236, O-methyl, N-(4-((3-chloro-4-fluorophenyl)carbamoyl)-7-fluoro-2-methoxy-2,3-dihydro-1H-inden-1-yl)carbamate], for which the EC50 under setting [3] worked out at 0.34 µM.

With `CC(C)NS(=O)(=O)N[C@H]1CCc2c(C(=O)Nc3ccc(F)c(Cl)c3)ccc(F)c21` [Compound 237, (S)-N-(3-chloro-4-fluorophenyl)-7-fluoro-1-((N-isopropylsulfamoyl)amino)-2,3-dihydro-1H-indene-4-carboxamide], the EC50 under setting [3] is 0.58 µM.

In the case of `CC(C)S(=O)(=O)N[C@H]1CCc2c(C(=O)Nc3ccc(F)c(Cl)c3)ccc(F)c21` [Compound 238, (S)—N-(3-Chloro-4-fluorophenyl)-7-fluoro-1-((1-methylethyl)sulfonamido)-2,3-dihydro-1H-indene-4-carboxamide], the EC50 under setting [3] was determined as 0.19 µM.

Consider `O=C(Nc1ccc(F)c(Cl)c1)c1ccc(F)c2c1CC[C@@H]2NS(=O)(=O)C1CCCC1` [Compound 239, (S)—N-(3-Chloro-4-fluorophenyl)-1-(cyclopentanesulfonamido)-7-fluoro-2,3-dihydro-1H-indene-4-carboxamide], for which the EC50 under setting [3] turned out to be 0.24 µM.

`O=C(Nc1ccc(F)c(Cl)c1)c1ccc(F)c2c1CC[C@@H]2NS(=O)(=O)C1CCCCC1` [Compound 240, (S)—N-(3-Chloro-4-fluorophenyl)-1-(cyclohexanesulfonamido)-7-fluoro-2,3-dihydro-1H-indene-4-carboxamide]: the EC50 under setting [3] was determined as 0.51 µM.

`CNC(=O)NC1CC(C)(C)c2c(C(=O)Nc3ccc(F)c(Cl)c3)ccc(F)c21` (centres unmarked) [Compound 241, N-(3-chloro-4-fluorophenyl)-7-fluoro-3,3-dimethyl-1-(3-methylureido)-2,3-dihydro-1H-indene-4-carboxamide]: under setting [3], the EC50 was 24 µM.

Consider `O=C(Nc1ccc(F)c(Cl)c1)c1cccc2c1CC[C@@H]2NS(=O)(=O)NC1CC1` [Compound 242, (S)-N-(3-chloro-4-fluorophenyl)-1-((N-cyclopropylsulfamoyl)amino)-2,3-dihydro-1H-indene-4-carboxamide], for which the EC50 under setting [3] is 0.57 µM.

On to `O=C(Nc1ccc(F)c(Cl)c1)c1ccc(F)c2c1CC[C@@H]2NS(=O)(=O)NC1CC1` [Compound 243, (S)-N-(3-chloro-4-fluorophenyl)-1-((N-cyclopropylsulfamoyl)amino)-7-fluoro-2,3-dihydro-1H-indene-4-carboxamide], for which the EC50 under setting [3] amounted to 0.16 µM.

In the case of `COC(=O)NC1c2c(F)ccc(C(=O)Nc3ccc(F)c(F)c3)c2CC1OC` (centres unmarked) [Compound 244, O-methyl, N-(4-((3,4-difluorophenyl)carbamoyl)-7-fluoro-2-methoxy-2,3-dihydro-1H-inden-1-yl) carbamate], under setting [2], the EC50 turned out to be 2 µM.

Take `CNC(=O)NC1c2c(F)ccc(C(=O)Nc3ccc(F)c(F)c3)c2CC1OC` (centres unmarked) [Compound 245, N-(3,4-difluorophenyl)-7-fluoro-2-methoxy-1-(3-methylureido)-2,3-dihydro-1H-indene-4-carboxamide]: the EC50 under setting [3] turned out to be 4.9 µM.

The record behind these values is US11098010B2 (priority 2017, dated 2021).
